Measurements: US20130089629A1, “KIT FOR THE TREATMENT OF ONYCHOMYCOSIS BY NITRIC OXIDE” (TOPICAL PHARMA AB, priority 2010, published 2013)

Tested on: skin surrounding the finger nail and the nail itself
Test: Acidifying effect of salicylic acid paste in a fingerstall on skin and finger nail
Type: in vivo
Settings: paste 2% w/w in fingerstall, about 12 hours, vs empty fingerstall
Description: In a study designed to investigate the acidifying effect on the skin surrounding the finger nail as well as the nail itself a paste comprising salicylic acid at 2% w/w was inserted in a fingerstall. The fingerstall was applied over the top of the finger covering it tightly for about 12 hours. A completely empty stall covering another finger served as control for the same time period
Upon scratching the nail surface with a sharp metal edge device, nail fragments (keratinized cells) were easily released in contrast to the nail at the finger covered with an empty fingerstall where the nail plate surface was hard.

O=C(O)c1ccccc1O [salicylic acid]
appearance of the skin after exposure: softening and loosening up of the skin | effect on the nail plate surface: loosened up the superficial outer nail plate layer
